Reference: patent US8815503B2, “Compositions and methods for immunostimulatory RNA oligonucleotides” (Rheinische Friedrich-Wilhelms-Universitat Bonn, priority 2005, dated 2014)

The sequences below were run on PBMC (assay: 193 ssRNA 4mer-motif library screen: IL-12 (IL-12p40) production in PBMC of six donors, poly-L-Arg complexation, ELISA at 44 hours, IL-12 index and adjusted IL-12 index). Details: 193 ssRNA oligonucleotide library; data from six individual donors summarized; ascending order.
Assay type: cell-based, human
Parameters: key to Adjusted IL-12 index Mean: IL-12 index (ratio to 9.2sense) minus donor mean, averaged over 6 donors
Procedure: FIG. 9: PBMC of six different healthy donors were isolated and stimulated with poly-L-arginine complexed ssRNA oligonucleotides in duplicates. 44 hours after stimulation IL-12p40 production was assessed in supernatant via ELISA. For all tested ssRNA oligonucleotides (table 3), the mean values of the measured duplicates were normalized to the positive control ssRNA oligonucleotide 9.2sense (5′-AGCUUAACCUGUCCUUCAA (SEQ ID NO: 194)) by dividing the mean value of tested oligonucleotide by the mean value of 9.2sense (=IL-12 index of a given oligonucleotide). Next, all individual IL-12 indices were adjusted to the mean value of all IL-12 indices by subtracting the mean value of all IL-12 indices from the individual IL-12 index of a given oligonucleotide (=adjusted IL-12 index). Data from six individual donors were summarized and were assorted in ascending order displaying the corresponding SEM (for a complete listing including numerical data see table 4). FIG. 9A discloses SEQ ID NOS 460-509, respectively, in order of appearance. FIG. 9B discloses SEQ ID NOS 510-559, respectively, in order of appearance. FIG. 9C discloses SEQ ID NOS 560-609, respectively, in order of appearance. FIG. 9D discloses SEQ ID NOS 610-652, respectively, in order of appearance.
All 193 ssRNA oligonucleotides were tested on PBMC of six individual healthy donors using poly-L-Arg for complexation. At 44 hours after stimulation with RNA oligonucleotides, supernatants were collected and IL-12 production was measured by ELISA. Prior to statistical analysis the raw data were processed as follows: for each cell culture plate the mean IL-12 value of the experimental duplicates for each tested ssRNA oligonucleotide were normalized to the ssRNA oligonucleotide RNA9.2sense (5′-AGCUUAACCUGUCCUUCAA-3′ (SEQ ID NO: 194)). This standard RNA oligonucleotide was included as a positive control on all cell culture plates. Normalization was performed by calculating the ratio of IL-12 induced by the tested oligonucleotide and IL-12 induced by the standard oligonucleotide RNA9.2sense. Thus, for each tested oligonucleotide in an individual donor a mean ratio of IL-12 induction was obtained. In the following, this mean of the ratios is referred to as IL-12 index (one value of IL-12 index per donor). […] The corresponding IL-12 index of oligonucleotide ANP175 for donor 3 was calculated to be 1.90 (=1725 pg/ml divided by 908 pg/ml).
Next, the means of all IL-12 indices for every individual donor were calculated. Then the adjusted IL-12 indices were calculated as IL-12 index minus the mean of all IL-12 indices of one individual donor. […] The adjusted IL-12 index of ANP175 was calculated: 1.90 minus 0.44=1.46. The adjusted IL-12 indices from all six donors were summarized by calculating the means and the corresponding standard error of mean. The data are depicted in ascending order (FIG. 9A, B, C, D). The adjusted IL-12 indices of the top thirty ssRNA oligonucleotides of all six donors were compared using a two-tailed Student's t-test (FIG. 10). For most combinations tested, a significant difference was observed when the interval between the analyzed pairs was at least eight or nine places in the assortment.

Sequence	Adjusted IL-12 index Mean
AAAAAAAAGGAAAAAAAAA (RNA, backbone not given here) [ANP-Oligo 009]	−0.66
AAAAAAACUAUAAAAAAAA (RNA, backbone not given here) [ANP-Oligo 088]	0.3
AAAAAAACUUCAAAAAAAA (RNA, backbone not given here) [ANP-Oligo 095]	−0.39
AAAAAAAGUUCAAAAAAAA (RNA, backbone not given here) [ANP-Oligo 143]	0.56
AAAAAAACUCCAAAAAAAA (RNA, backbone not given here) [ANP-Oligo 089]	−0.42
AAAAAAAGCCCAAAAAAAA (RNA, backbone not given here) [ANP-Oligo 113]	−0.54
AAAAAAAAUAUAAAAAAAA (RNA, backbone not given here) [ANP-Oligo 040]	−0.04
AAAAAAAACGCAAAAAAAA (RNA, backbone not given here) [ANP-Oligo 020]	−0.66
AAAAAAAUUUUAAAAAAAA (RNA, backbone not given here) [ANP-Oligo 193]	0.62
AAAAAAACCUGAAAAAAAA (RNA, backbone not given here) [ANP-Oligo 072]	−0.51
AAAAAAAGCGGAAAAAAAA (RNA, backbone not given here) [ANP-Oligo 117]	−0.63
AAAAAAAAGGGAAAAAAAA (RNA, backbone not given here) [ANP-Oligo 033]	−0.59
AAAAAAAUCAUAAAAAAAA (RNA, backbone not given here) [ANP-Oligo 160]	0.1
AAAAAAAAUGAAAAAAAAA (RNA, backbone not given here) [ANP-Oligo 012]	−0.23
AAAAAAAGGGGAAAAAAAA (RNA, backbone not given here) [ANP-Oligo 129]	−0.51
AAAAAAACUGCAAAAAAAA (RNA, backbone not given here) [ANP-Oligo 092]	0
AAAAAAAGGCGAAAAAAAA (RNA, backbone not given here) [ANP-Oligo 126]	−0.54
AAAAAAACCAUAAAAAAAA (RNA, backbone not given here) [ANP-Oligo 064]	−0.38
AAAAAAACAUUAAAAAAAA (RNA, backbone not given here) [ANP-Oligo 061]	−0.23
AAAAAAAUUCGAAAAAAAA (RNA, backbone not given here) [ANP-Oligo 186]	−0.08

Sequence	Adjusted IL-12 index Mean
AAAAAAAUUAUAAAAAAAA (RNA, backbone not given here) [ANP-Oligo 184]	0.56
AAAAAAAUCGGAAAAAAAA (RNA, backbone not given here) [ANP-Oligo 165]	−0.26
AAAAAAAGAAGAAAAAAAA (RNA, backbone not given here) [ANP-Oligo 099]	−0.61
AAAAAAACCACAAAAAAAA (RNA, backbone not given here) [ANP-Oligo 062]	−0.66
AAAAAAAUGUCAAAAAAAA (RNA, backbone not given here) [ANP-Oligo 179]	0.9
AAAAAAACCCGAAAAAAAA (RNA, backbone not given here) [ANP-Oligo 066]	−0.62
AAAAAAAGUGGAAAAAAAA (RNA, backbone not given here) [ANP-Oligo 141]	0.5
AAAAAAAGGGUAAAAAAAA (RNA, backbone not given here) [ANP-Oligo 130]	−0.44
AAAAAAACGACAAAAAAAA (RNA, backbone not given here) [ANP-Oligo 074]	−0.6
AAAAAAAGGGCAAAAAAAA (RNA, backbone not given here) [ANP-Oligo 128]	−0.64
AAAAAAACAAGAAAAAAAA (RNA, backbone not given here) [ANP-Oligo 051]	−0.66
AAAAAAAACAGAAAAAAAA (RNA, backbone not given here) [ANP-Oligo 015]	−0.65
AAAAAAACACCAAAAAAAA (RNA, backbone not given here) [ANP-Oligo 053]	−0.67
AAAAAAAGUAGAAAAAAAA (RNA, backbone not given here) [ANP-Oligo 135]	0.67
AAAAAAAGACGAAAAAAAA (RNA, backbone not given here) [ANP-Oligo 102]	−0.64
AAAAAAAUCACAAAAAAAA (RNA, backbone not given here) [ANP-Oligo 158]	−0.39
AAAAAAAUAAUAAAAAAAA (RNA, backbone not given here) [ANP-Oligo 148]	0.7
AAAAAAAAGAUAAAAAAAA (RNA, backbone not given here) [ANP-Oligo 028]	−0.32
AAAAAAAAUAGAAAAAAAA (RNA, backbone not given here) [ANP-Oligo 039]	−0.05
AAAAAAACCAGAAAAAAAA (RNA, backbone not given here) [ANP-Oligo 063]	−0.57

Sequence	Adjusted IL-12 index Mean
AAAAAAAUUACAAAAAAAA (RNA, backbone not given here) [ANP-Oligo 182]	0.11
AAAAAAAAUGGAAAAAAAA (RNA, backbone not given here) [ANP-Oligo 045]	−0.29
AAAAAAAGGUCAAAAAAAA (RNA, backbone not given here) [ANP-Oligo 131]	0.12
AAAAAAACCGUAAAAAAAA (RNA, backbone not given here) [ANP-Oligo 070]	−0.16
AAAAAAAUUUCAAAAAAAA (RNA, backbone not given here) [ANP-Oligo 191]	0.27
AAAAAAAAUCUAAAAAAAA (RNA, backbone not given here) [ANP-Oligo 043]	−0.22
AAAAAAACGUUAAAAAAAA (RNA, backbone not given here) [ANP-Oligo 085]	0.57
AAAAAAAUGCGAAAAAAAA (RNA, backbone not given here) [ANP-Oligo 174]	0.28
AAAAAAAAUUUAAAAAAAA (RNA, backbone not given here) [ANP-Oligo 049]	−0.07
AAAAAAAAGAAAAAAAAAA (RNA, backbone not given here) [ANP-Oligo 003]	−0.63
AAAAAAAGCGCAAAAAAAA (RNA, backbone not given here) [ANP-Oligo 116]	−0.58
AAAAAAAACUGAAAAAAAA (RNA, backbone not given here) [ANP-Oligo 024]	−0.48
AAAAAAAGGCUAAAAAAAA (RNA, backbone not given here) [ANP-Oligo 127]	0.11
AAAAAAAGCACAAAAAAAA (RNA, backbone not given here) [ANP-Oligo 110]	−0.58
AAAAAAAGCAUAAAAAAAA (RNA, backbone not given here) [ANP-Oligo 112]	0.08
AAAAAAAUCUUAAAAAAAA (RNA, backbone not given here) [ANP-Oligo 169]	0.67
AAAAAAAAAAAAAAAAAAA (RNA, backbone not given here) [ANP-Oligo 001]	−0.48
AAAAAAAUAUUAAAAAAAA (RNA, backbone not given here) [ANP-Oligo 157]	0.46
AAAAAAACUACAAAAAAAA (RNA, backbone not given here) [ANP-Oligo 086]	−0.46
